Columns and labels:
Tau protein = target: T1, Tau protein (Homo sapiens, UniProt P10636); experiment: Inhibition of Tau aggregation in intact E. coli cells overexpressing Tau (ThS fluorescence); assay type: cell-based, Escherichia coli
T1 construct: expressed in transfected cells; host or cells: Escherichia coli BL21 (DE3) with pTARA and pRKT42
Procedure, shortened: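 E. coli BL21(DE3) expressing four-repeat Tau, arabinose-induced in M9 with 25 μM ThS, grown overnight at 37 °C with compound at 10 μM final. ThS emission at 485 nm (excitation 440 nm) normalized to ABS600; 100% = induced DMSO control, 0% = noninduced cells.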

PAMPA-BBB assay = experiment: PAMPA-BBB assay
Description: Thus, to reduce attrition in the development process, the evaluation of BBB penetration at a very early drug discovery stage is of crucial importance. In light of this, the ability of the previously selected compounds to cross the BBB was predicted by a parallel artificial membrane permeability assay (PAMPA)-BBB,[41] a high-throughput technique widely used as an indicator of a molecule’s passive diffusion through the BBB. Six commercially available drugs were used to validate the assay.
PAMPA (the parallel artificial membrane permeability assay) is a high-throughput screening tool applicable for the prediction of the passive transport of potential drugs across the BBB.[41] In this study, it has been used as a non-cell-based in vitro assay carried out in a coated 96-well membrane filter. The filter membrane of the donor plate was coated with PBL (Polar Brain Lipid, Avanti) in dodecane (4 μL of 20 mg/mL PBL in dodecane) and the acceptor well was filled with 300 μL of phosphate buffer saline, (PBS pH 7.4; VA). The tested compounds were dissolved first in DMSO and then diluted with PBS pH 7.4 to reach the final concentrations of 50–500 μM in the donor well. […] Then, 300 μL of the donor solution (VD) was added to the donor wells and the donor filter plate was carefully put on the acceptor plate so that the coated membrane was “in touch” with both donor solution and acceptor buffer. In principle, the test compound diffuses from the donor well through the polar brain lipid membrane (area = 0.28 cm^2) to the acceptor well. The concentrations of the tested compound in both donor and the acceptor wells were assessed after 3, 4, 5, and 6 h of incubation in quadruplicate using a UV plate reader, Synergy HT (Biotek) at the maximum absorption wavelength of each compound (n=3). In addition to that, solution of the theoretical compound concentration, simulating the equilibrium state established if the membrane were ideally permeable, was prepared and assessed as well. The concentrations of the compounds in the donor and acceptor wells and the equilibrium concentration were calculated from the standard curve and expressed as the permeability (Pe) according to the equation[41] [drawing 1] where [drawing 2]

T1 sequence (P10636 1-441 isoform P10636-8): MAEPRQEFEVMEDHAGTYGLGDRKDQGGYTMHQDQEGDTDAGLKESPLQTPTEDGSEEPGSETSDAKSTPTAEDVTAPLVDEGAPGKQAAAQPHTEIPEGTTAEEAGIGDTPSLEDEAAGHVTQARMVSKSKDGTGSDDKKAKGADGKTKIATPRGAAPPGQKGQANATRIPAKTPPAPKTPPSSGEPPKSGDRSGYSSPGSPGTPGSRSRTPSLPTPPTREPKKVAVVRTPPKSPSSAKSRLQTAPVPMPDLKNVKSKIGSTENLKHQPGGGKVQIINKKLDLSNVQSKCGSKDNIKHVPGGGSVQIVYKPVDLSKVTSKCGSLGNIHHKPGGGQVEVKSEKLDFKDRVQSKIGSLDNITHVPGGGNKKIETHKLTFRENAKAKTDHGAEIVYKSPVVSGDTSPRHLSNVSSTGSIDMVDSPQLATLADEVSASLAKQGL

CN(C)CCN1C(=O)S/C(=C\c2ccc3c(c2)C(C)(C)c2cc(/C=C4\SC(=O)N(CCN(C)C)C4=O)ccc2-3)C1=O [Compound 23, (5Z,5′Z)-5,5′-((9,9-Dimethyl-9H-fluorene-2,7-diyl)bis(methanylylidene))bis(3-(2-(dimethylamino)ethyl)thiazolidine-2,4-dione)]
% inhibition Tau aggregation @ 10 μM (Tau protein; intact E. coli cells, compound 10 μM, mean ± SEM of four independent experiments, 10 µM): 41.9 ± 3.9%
inhibition at 10 µM (Tau protein; read-out: % inhibition Tau aggregation @ 10 μM, intact E. coli cells, compound 10 μM, mean ± SEM of four independent experiments): > 40%
Papp (PAMPA-BBB assay; PAMPA, pH 7.4): 18.9 ± 5.39 ×10⁻⁶ cm/s
BBB permeability prediction (PAMPA-BBB assay; PAMPA-BBB): predicted to passively diffuse across the BBB
CNS (+/-) (PAMPA-BBB assay; PAMPA-BBB penetration estimation): CNS + (CNS + (high BBB permeation predicted): Pe (×10-6 cm s-1) > 4.0)

Reference: publication PMC9732823, “Discovery of Dual Aβ/Tau Inhibitors and Evaluation of Their Therapeutic Effect on a Drosophila Model of Alzheimer’s Disease” (ACS Chemical Neuroscience, 2022)
